T1: Solute carrier organic anion transporter family member 2B1 (Homo sapiens, UniProt O94956)
T1 sequence (O94956 whole entry): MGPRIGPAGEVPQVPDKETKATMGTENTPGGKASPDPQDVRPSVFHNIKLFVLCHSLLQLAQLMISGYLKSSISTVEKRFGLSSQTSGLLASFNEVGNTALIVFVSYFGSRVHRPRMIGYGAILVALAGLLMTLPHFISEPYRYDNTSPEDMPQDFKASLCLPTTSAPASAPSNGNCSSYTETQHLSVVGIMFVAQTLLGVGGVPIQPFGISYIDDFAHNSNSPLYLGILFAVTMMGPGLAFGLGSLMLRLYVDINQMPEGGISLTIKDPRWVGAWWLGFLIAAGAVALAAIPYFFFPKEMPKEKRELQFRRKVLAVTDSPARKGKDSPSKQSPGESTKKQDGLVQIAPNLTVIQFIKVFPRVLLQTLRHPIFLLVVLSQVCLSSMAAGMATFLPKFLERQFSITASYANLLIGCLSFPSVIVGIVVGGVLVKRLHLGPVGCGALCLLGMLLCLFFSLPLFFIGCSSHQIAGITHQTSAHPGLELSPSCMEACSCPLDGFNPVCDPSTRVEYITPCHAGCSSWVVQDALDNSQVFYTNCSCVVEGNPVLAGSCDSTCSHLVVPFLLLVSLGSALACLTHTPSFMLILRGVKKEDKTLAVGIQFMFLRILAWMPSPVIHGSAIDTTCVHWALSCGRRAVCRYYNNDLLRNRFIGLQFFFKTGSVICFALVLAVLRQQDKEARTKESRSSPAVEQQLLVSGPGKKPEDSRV

T2: OATP2B1 (Homo sapiens, UniProt O94956)
T2 sequence (O94956 whole entry): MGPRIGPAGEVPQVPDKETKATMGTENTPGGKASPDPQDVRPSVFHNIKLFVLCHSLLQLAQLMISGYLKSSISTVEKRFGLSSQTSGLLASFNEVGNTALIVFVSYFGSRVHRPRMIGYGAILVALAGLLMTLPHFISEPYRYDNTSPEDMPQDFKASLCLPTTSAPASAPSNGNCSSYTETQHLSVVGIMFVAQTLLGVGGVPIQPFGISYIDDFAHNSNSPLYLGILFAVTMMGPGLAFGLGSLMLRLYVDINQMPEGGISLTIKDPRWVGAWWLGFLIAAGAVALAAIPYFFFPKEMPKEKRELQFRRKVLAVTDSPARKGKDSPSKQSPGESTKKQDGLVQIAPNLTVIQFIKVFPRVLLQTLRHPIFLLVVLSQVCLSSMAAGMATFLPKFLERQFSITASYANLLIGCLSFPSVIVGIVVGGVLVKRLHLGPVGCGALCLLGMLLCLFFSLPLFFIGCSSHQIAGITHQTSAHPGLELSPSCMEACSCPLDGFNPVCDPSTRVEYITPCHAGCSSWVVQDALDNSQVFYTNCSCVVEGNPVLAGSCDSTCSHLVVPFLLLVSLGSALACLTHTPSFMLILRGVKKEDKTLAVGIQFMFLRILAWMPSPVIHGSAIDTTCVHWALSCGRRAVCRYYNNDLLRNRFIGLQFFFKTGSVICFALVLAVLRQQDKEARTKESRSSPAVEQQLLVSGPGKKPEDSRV

B1: Solute carrier organic anion transporter family member 2B1 (Homo sapiens) (protein)
chain: MGPRIGPAGEVPQVPDKETKATMGTENTPGGKASPDPQDVRPSVFHNIKLFVLCHSLLQLAQLMISGYLKSSISTVEKRFGLSSQTSGLLASFNEVGNTALIVFVSYFGSRVHRPRMIGYGAILVALAGLLMTLPHFISEPYRYDNTSPEDMPQDFKASLCLPTTSAPASAPSNGNCSSYTETQHLSVVGIMFVAQTLLGVGGVPIQPFGISYIDDFAHNSNSPLYLGILFAVTMMGPGLAFGLGSLMLRLYVDINQMPEGGISLTIKDPRWVGAWWLGFLIAAGAVALAAIPYFFFPKEMPKEKRELQFRRKVLAVTDSPARKGKDSPSKQSPGESTKKQDGLVQIAPNLTVIQFIKVFPRVLLQTLRHPIFLLVVLSQVCLSSMAAGMATFLPKFLERQFSITASYANLLIGCLSFPSVIVGIVVGGVLVKRLHLGPVGCGALCLLGMLLCLFFSLPLFFIGCSSHQIAGITHQTSAHPGLELSPSCMEACSCPLDGFNPVCDPSTRVEYITPCHAGCSSWVVQDALDNSQVFYTNCSCVVEGNPVLAGSCDSTCSHLVVPFLLLVSLGSALACLTHTPSFMLILRGVKKEDKTLAVGIQFMFLRILAWMPSPVIHGSAIDTTCVHWALSCGRRAVCRYYNNDLLRNRFIGLQFFFKTGSVICFALVLAVLRQQDKEARTKESRSSPAVEQQLLVSGPGKKPEDSRV

Key:
Type in all cases: functional, cell-based
[1] = target: T1, Solute carrier organic anion transporter family member 2B1; assay: TP_TRANSPORTER: inhibition of glibenclamide uptake (glibenclamide: 10nM) in OATP2B1-expressing HEK293 cells; design: scale not given: the % may be the effect or the level left
OATP2B1 = target: T2, OATP2B1; assay: (§1) TP_TRANSPORTER: inhibition of Estrone-3-sulfate uptake (Estrone-3-sulfate: 10nM) in OATP2B1-expressing HEK293 cells; design: scale not given: the % may be the effect or the level left; details: HEK293 cells expressing OATP2B1, probe Estrone-3-sulfate (10 nM)
[2] = target: T1, Solute carrier organic anion transporter family member 2B1; assay: TP_TRANSPORTER: uptake of DHEAS at a concentration of 17.4nM in OATP2B1-expressing HEK293 cells
[3] = target: T1, Solute carrier organic anion transporter family member 2B1; assay: as §1; design: scale not given: the % may be the effect or the level left; details: hek293
[4] = substrate: COc1ccc(Cl)cc1C(=O)NCCc1ccc(S(=O)(=O)NC(=O)NC2CCCCC2)cc1; assay: (§2) TP_TRANSPORTER: uptake in OATP2B1-expressing HEK293 cells
[5] = substrate: C[C@]12CC[C@@H]3c4ccc(OS(=O)(=O)O)cc4CC[C@H]3[C@@H]1CCC2=O; assay: as §2

Molecule | Activity [1] | Activity (OATP2B1) | other results
CC(C)=CCC/C(C)=C/COc1c2ccoc2cc2oc(=O)ccc12 [BERGAMOTTIN] | is not an inhibitor [(-)] | 40% | –
C/C(=C\COc1c2ccoc2cc2oc(=O)ccc12)CCC(O)C(C)(C)O (stereo not drawn) [DIHYDROXYBERGAMOTTIN] | 35% | 58% | –
O=C1C[C@@H](c2ccc(O)cc2)Oc2cc(O)cc(O)c21 [NARINGENIN] | 45% | 72% | –
C[C@@H]1O[C@@H](O[C@H]2[C@H](Oc3cc(O)c4c(c3)O[C@H](c3ccc(O)cc3)CC4=O)O[C@H](CO)[C@@H](O)[C@@H]2O)[C@H](O)[C@H](O)[C@H]1O [NARINGIN] | 70% | 61% | –
COc1ccc(-c2cc(=O)c3c(OC)c(OC)c(OC)c(OC)c3o2)cc1OC [NOBILETIN] | 58% | 40% | –
C[C@]12CC[C@H](OS(=O)(=O)O)CC1=CC[C@@H]1[C@@H]2CC[C@]2(C)C(=O)CC[C@@H]12 [PRASTERONE SULFURIC ACID] | – | – | Activity [2]: substrate [+]
O=c1c(O)c(-c2ccc(O)c(O)c2)oc2cc(O)cc(O)c12 [QUERCETIN] | is not an inhibitor [(-)] | 80% | –
COc1ccc(-c2cc(=O)c3c(OC)c(OC)c(OC)c(OC)c3o2)cc1 [TANGERETIN] | 25% | 89% | –
APPLE JUICE | is not an inhibitor [(-)] | – | Activity [3]: 89%
GRAPEFRUIT JUICE | 38% | – | Activity [3]: 18%
ORANGE JUICE | 50% | – | Activity [3]: 45%
B1 | – | – | Km [4]: 6.26 µM; Km [5]: 7.14 µM

— ChEMBL document CHEMBL2074136, “Citrus juices inhibit the function of human organic anion-transporting polypeptide OATP-B” (Drug Metab Dispos, 2005)
